Drawing on patent publication US20240140957A1, “BRIDGED COMPOUNDS AS KRAS G12D INHIBITOR AND DEGRADER AND THE USE THEREOF” (BeiGene Switzerland GmbH, priority 2021, published 2024), this text covers IC50 for 17 compounds.

One assay concerns the target KRAS G12D:SOS1 (Homo sapiens, UniProt P01116, G12D). The experiment in a line: KRAS G12D:SOS1 GDP TR-FRET assay. Particulars: GST-KRAS G12D 37.5 nM, GDP 10 μM, His-SOS1 18 nM. It is filed as binding. The method, then: (§1) KRAS:SOS1 GDP TR-FRET Assay
(§2) This assay was used to identify compounds which competitively interact with the binding of KRAS protein to SOS1 in the presence of GDP. […] All protein and reaction solutions were prepared in assay buffer containing DPBS pH7.5, 0.1% BSA, and 0.05% Tween 20. Purified GST-tagged WT KRAS or KRAS G12D protein (37.5 nM final assay concentration) and GDP (Sigma, 10 μM final assay concentration) mixture, a serially diluted compound (top final concentration is 50 μM or 10 uM, 3-fold serially diluted, 10 points) and His-tagged SOS1 protein (18 nM final assay concentration) were added into the assay plates (384 well microplate, black, Corning) sequentially. Plates are incubated at 24° C. for 1 hr. Following the incubation, Mab Anti-GST-Tb cryptate (Cisbio) and […] (Cisbio) were added and further incubated at 24° C. for another 1 hr. The TR-FRET signals (ex337 nm, em665 nm/620 nm) were read on BMG PHERAstar FSX instrument. The inhibition percentage of KRAS protein binding with SOS1 in presence of increasing concentrations of compounds was calculated based on the ratio of fluorescence at 665 nm to that at 620 nm. The IC50 value of each compound was calculated from fitting the data to the four-parameter logistic model by Dotmatics.
Background: In TR-FRET formats the signal depends on donor and acceptor labels being close together.

The next assay has as its target WT KRAS:SOS1 (Homo sapiens, UniProt P01116). Briefly: KRAS WT:SOS1 GDP TR-FRET assay. Type of assay: binding. The following applies: GST-WT KRAS 37.5 nM, GDP 10 μM, His-SOS1 18 nM. As for the experimental part: as §1, §2
For assay [1], the system named is pERK1/2 (THR202/TYR204) in AsPC-1 cells. The experiment in a line: pERK Assay (HTRF) in AsPC-1 cells. It is filed as cell-based. The following applies: Homo sapiens, ASPC1, 2 h compound treatment. As for the experimental part:
AsPC-1 cell line was used in this study. […] 30000 cells per well were seeded into a 96-well plate and incubated overnight. […] After 2 h compound treatment, cells were lysed, and the pERK1/2 (THR202/TYR204) level in the cell lysates was detected by HTRF kit (Cisbio). In brief, a total of 16 μL of cell lysate from each well of a 96-well plate was transferred to a 384-well white assay plate. Lysate from each well was incubated with 2 μL of Eu3+-cryptate (donor) labeled anti-phospho-ERK1/2 and 2 μL of D2 (acceptor) labeled anti-phospho-ERK1/2 antibodies (Cisbio) overnight in dark at room temperature. When donor and acceptor are in close proximity, excitation of the donor with laser triggers a Fluorescence Resonance Energy Transfer (FRET) towards the acceptor, which in turn fluoresces at 655 nm wavelength. FRET signals were measured using a PHERAstar FSX reader (BMG Labtech).

A word on the IC50: it is the midpoint of a concentration-inhibition curve.

Chain of WT KRAS:SOS1 (P01116 1-188 isoform P01116-2): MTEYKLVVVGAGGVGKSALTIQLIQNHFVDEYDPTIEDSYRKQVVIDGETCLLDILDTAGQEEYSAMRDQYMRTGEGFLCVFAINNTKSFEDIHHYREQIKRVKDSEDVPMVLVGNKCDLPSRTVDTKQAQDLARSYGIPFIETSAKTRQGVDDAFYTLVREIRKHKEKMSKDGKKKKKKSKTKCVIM
Chain of KRAS G12D:SOS1 (P01116 1-188 isoform P01116-2 G12D): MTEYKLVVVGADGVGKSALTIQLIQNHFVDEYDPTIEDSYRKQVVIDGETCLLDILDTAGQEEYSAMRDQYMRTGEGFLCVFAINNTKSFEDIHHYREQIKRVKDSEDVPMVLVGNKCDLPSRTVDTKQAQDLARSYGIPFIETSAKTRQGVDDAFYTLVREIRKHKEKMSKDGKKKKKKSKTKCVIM

Take `CN(C)CCCOc1nc(N2CC3CC2CN3)c2cc(Cl)c(-c3ccc(F)c4sc(N)nc34)c(F)c2n1` (stereo not drawn) [Example E3, 4-(4-(2,5-diazabicyclo[2.2.1]heptan-2-yl)-6-chloro-2-(3-(dimethylamino)propoxy)-8-fluoroquinazolin-7-yl)-7-fluorobenzo[d]thiazol-2-amine]: the IC50 at KRAS G12D:SOS1 was 0.068 µM; against WT KRAS:SOS1, 3.29 µM; in assay [1], greater than 10 µM.
The corresponding values for `CN(C)CCCOc1nc(N2CC3CCC2CN3)c2cc(Cl)c(-c3ccc(F)c4sc(N)nc34)c(F)c2n1` (stereo not drawn) [Example E4, 4-(4-(2,5-diazabicyclo[2.2.2]octan-2-yl)-6-chloro-2-(3-(dimethylamino)propoxy)-8-fluoroquinazolin-7-yl)-7-fluorobenzo[d]thiazol-2-amine] are 0.039 µM, 1.1 µM and greater than 10 µM.
For `CC(CN1CCCCC1)Oc1nc(N2CC3CCC(C2)N3)c2cc(Cl)c(-c3ccc(F)c4sc(N)nc34)c(F)c2n1` (stereo not drawn) [Example E5, 4-(4-(3,8-diazabicyclo [3.2.1]octan-3-yl)-6-chloro-8-fluoro-2-((1-(piperidin-1-yl)propan-2-yl)_oxy)quinazolin-7-yl)-7-fluorobenzo[d]thiazol-2-amine], the IC50 against KRAS G12D:SOS1 was found to be 0.02 µM; against WT KRAS:SOS1 it was 0.402 µM; in assay [1] it was 2.87 µM.
The corresponding values for `CC(CN1CCCCC1)Oc1nc(N2CC3CC(C2)N3)c2cc(Cl)c(-c3ccc(F)c4sc(N)nc34)c(F)c2n1` (stereo not drawn) [Example E6, 4-(4-(3,6-diazabicyclo[3.1.1]heptan-3-yl)-6-chloro-8-fluoro-2-((1-(piperidin-1-yl)propan-2-yl)oxy)quinazolin-7-yl)-7-fluorobenzo[d]thiazol-2-amine] are 0.018 µM, 1.06 µM and 7.08 µM.
In the case of `Nc1nc2c(-c3c(Cl)cc4c(N5CC6CCC(C5)N6)nc(OCC56CCCN5CCC6)nc4c3F)ccc(F)c2s1` [Example E7, 4-(4-(3,8-diazabicyclo[3.2.1]octan-3-yl)-6-chloro-8-fluoro-2-((tetrahydro-1H-pyrrolizin-7a(5H)-yl)methoxy)quinazolin-7-yl)-7-fluorobenzo[d]thiazol-2-amine], the IC50 at KRAS G12D:SOS1 was determined as 0.0047 µM; against WT KRAS:SOS1, 0.011 µM; in assay [1], 2.64 µM.
The corresponding values for `CC(CN1CCCCC1)Oc1nc(N2C3CCC2CNC3)c2cc(Cl)c(-c3ccc(F)c4sc(N)nc34)c(F)c2n1` (stereo not drawn) [Example E8, 4-(4-(3,8-diazabicyclo[3.2.1]octan-8-yl)-6-chloro-8-fluoro-2-((1-(piperidin-1-yl)propan-2-yl)oxy)quinazolin-7-yl)-7-fluorobenzo[d]thiazol-2-amine] are 0.0067 µM, 0.05 µM and 1.15 µM.
Consider `CC(CN1CCCCC1)Oc1nc(N2C3CCC2C(N)C3)c2cc(Cl)c(-c3ccc(F)c4sc(N)nc34)c(F)c2n1` (stereo not drawn) [Example E9, 4-(4-(2-amino-7-azabicyclo[2.2.1]heptan-7-yl)-6-chloro-8-fluoro-2-((1-(piperidin-1-yl)propan-2-yl)oxy)quinazolin-7-yl)-7-fluorobenzo[d]thiazol-2-amine], for which the 50% inhibitory concentration (IC50) on KRAS G12D:SOS1 is 0.026 µM; on WT KRAS:SOS1 it was 0.381 µM; in assay [1], 7.69 µM.
On to `CC(CN1C2CCC1CNC2)Oc1nc(N2CC3CCC(C2)N3)c2cc(Cl)c(-c3ccc(F)c4sc(N)nc34)c(F)c2n1` (stereo not drawn) [Example E10, 4-(2-((1-(3,8-diazabicyclo[3.2.1]octan-8-yl)propan-2-yl)oxy)-4-(3,8-diazabicyclo[3.2.1]octan-3-yl)-6-chloro-8-fluoroquinazolin-7-yl)-7-fluorobenzo[d]thiazol-2-amine], for which the IC50 was 0.0057 µM at KRAS G12D:SOS1, 0.387 µM at WT KRAS:SOS1 and greater than 10 µM in assay [1].
Consider `C[C@@H](CN1CCCCC1)Oc1nc(N2CC3CCC(C2)N3)c2cc(Cl)c(-c3ccc(F)c4sc(N)nc34)c(F)c2n1` [Example E11, 4-(4-(3,8-diazabicyclo[3.2.1]octan-3-yl)-6-chloro-8-fluoro-2-(((S)-1-(piperidin-1-yl)propan-2-yl)oxy)quinazolin-7-yl)-7-fluorobenzo[d]thiazol-2-amine], for which the IC50 came to 0.0019 µM against KRAS G12D:SOS1, 0.03 µM on WT KRAS:SOS1 and 0.859 µM in assay [1].
For `C[C@@H](CN1CCCCC1)Oc1nc(N2CC3CC(C2)N3)c2cc(Cl)c(-c3ccc(F)c4sc(N)nc34)c(F)c2n1` [Example E12] the same measures were 0.0035 µM, 0.124 µM and 2.02 µM.
For `CC(CN1CCNCC1)Oc1nc(N2CC3CCC(C2)N3)c2cc(Cl)c(-c3ccc(F)c4sc(N)nc34)c(F)c2n1` (stereo not drawn) [Example E13, 4-(4-(3,8-diazabicyclo[3.2.1]octan-3-yl)-6-chloro-8-fluoro-2-((1-(piperazin-1-yl)propan-2-yl)oxy)quinazolin-7-yl)-7-fluorobenzo[d]thiazol-2-amine] the same measures were 0.0083 µM, 0.537 µM and greater than 10 µM.
For `CO[C@@H]1C[C@@H](COc2nc(N3CC4CCC(C3)N4)c3cc(Cl)c(-c4ccc(F)c5sc(N)nc45)c(F)c3n2)N(C)C1` [Example E14, 4-(4-(3,8-diazabicyclo[3.2.1]octan-3-yl)-6-chloro-8-fluoro-2-(((2S,4R)-4-methoxy-1-methylpyrrolidin-2-yl)methoxy)quinazolin-7-yl)-7-fluorobenzo[d]thiazol-2-amine] the same measures were 0.0053 µM, 0.068 µM and 1.16 µM.
For `CN1C[C@H](F)C[C@H]1COc1nc(N2CC3CCC(C2)N3)c2cc(Cl)c(-c3ccc(F)c4sc(N)nc34)c(F)c2n1` [Example E15, 4-(4-(3,8-diazabicyclo[3.2.1]octan-3-yl)-6-chloro-8-fluoro-2-(((2S,4R)-4-fluoro-1-methylpyrrolidin-2-yl)methoxy)quinazolin-7-yl)-7-fluorobenzo[d]thiazol-2-amine], the results for the IC50 (against KRAS G12D:SOS1; against WT KRAS:SOS1; in assay [1]) were 0.0044 µM, 0.083 µM and 0.574 µM, respectively.
Turning to `CN1CCC[C@H]1COc1nc(N2CC3CCC(C2)N3)c2cc(Cl)c(-c3ccc(F)c4sc(N)nc34)c(F)c2n1` [Example E16, 4-(4-(3,8-diazabicyclo[3.2.1]octan-3-yl)-6-chloro-8-fluoro-2-(((S)-1-methylpyrrolidin-2-yl)methoxy)quinazolin-7-yl)-7-fluorobenzo[d]thiazol-2-amine], the IC50 against KRAS G12D:SOS1 was found to be 0.0028 µM; at WT KRAS:SOS1 it was 0.027 µM; in assay [1], 1.52 µM.
The corresponding values for `C[C@@H](CN1CCC(F)(F)CC1)Oc1nc(N2CC3CCC(C2)N3)c2cc(Cl)c(-c3ccc(F)c4sc(N)nc34)c(F)c2n1` [Example E17, 4-(4-(3,8-diazabicyclo[3.2.1]octan-3-yl)-6-chloro-2-(((S)-1-(4,4-difluoropiperidin-1-yl)propan-2-yl)oxy)-8-fluoroquinazolin-7-yl)-7-fluorobenzo[d]thiazol-2-amine] are 0.0042 µM, 0.785 µM and 2.88 µM.
Consider `C[C@@H](CN1CCCCC1)Oc1nc(N2C3CCC2CNC3)c2cc(Cl)c(-c3ccc(F)c4sc(N)nc34)c(F)c2n1` [Example E18, 4-(4-(3,8-diazabicyclo[3.2.1]octan-8-yl)-6-chloro-8-fluoro-2-(((S)-1-(piperidin-1-yl)propan-2-yl)oxy)quinazolin-7-yl)-7-fluorobenzo[d]thiazol-2-amine], for which the results for the half-maximal inhibitory concentration (IC50) (against KRAS G12D:SOS1; against WT KRAS:SOS1; in assay [1]) were 0.0025 µM, 0.035 µM and 0.528 µM, respectively.
For `C[C@@H](CN1CCC(F)(F)CC1)Oc1nc(N2C3CCC2CNC3)c2cc(Cl)c(-c3ccc(F)c4sc(N)nc34)c(F)c2n1` [Example E19, 4-(4-(3,8-diazabicyclo[3.2.1]octan-8-yl)-6-chloro-2-(((S)-1-(4,4-difluoropiperidin-1-yl)propan-2-yl)oxy)-8-fluoroquinazolin-7-yl)-7-fluorobenzo[d]thiazol-2-amine] the same measures were 0.01 µM, 0.566 µM and 3.41 µM.
